Patent US9662362B2, “Composition and methods for clotting blood” (BYZMED LLC, priority 2009, dated 2017)

Test system: nose bleeding
Experiment: Nose bleeding after abrasion of the nasal passage, checked by blowing nose and dabbing with tissue
Format: in vivo
Conditions: visual check
Source text: Nose bleeding was caused by creating an abrasion to the nasal passage of a subject by use of a cotton swab irritating the nasal passage. The subject then blew their nose vigorously. The first test was to create an abrasion and pinching the nostril with no application of any product. Bleeding was checked at multiple time points, including the after 30 seconds, 60 seconds and 90 seconds by blowing ones nose 3 times and dabbing the area with a tissue to see if there was continued perfuse bleeding. […] After 90 seconds, the first test was then concluded. Next, the effect of glycerin on nose bleeding was determined. Glycerin was applied to the nasal passage after bleeding had started. Bleeding was checked at multiple time points, including the after 30 seconds, 60 seconds and 90 seconds by blowing ones nose 3 times and dabbing the area with a tissue to see if there was continued perfuse bleeding. […] After 90 seconds, the second test was then concluded. The effect of the disclosed clotting agent that included the active ingredients of […] betonica, achillea millefolium, marrubium vulgare, and urtica dioica application on nose bleeding was then determined. Bleeding was checked at multiple time points, including after 30 seconds, 60 seconds and 90 seconds by the subject blowing their nose 3 times and dabbing the area with a tissue to see if there was continued perfuse bleeding. […] After 90 seconds, there was no bleeding in the nasal passage. This part of the test was then concluded.

Measured: bleeding in the nasal passage

OCC(O)CO [Glycerin]
bleeding continued: after 30 seconds, applied to nasal passage after bleeding had started | after 60 seconds (1 minute) | after 90 seconds
